# Test results from patent publication US20230146422A1, “ANIMAL MODEL FOR STUDYING CANCER IMMUNOTHERAPY” (ONCOFACTORY, priority 2020, published 2023).
# What was measured:
# [1] = system: CD4 and CD8 T cells of grafted human PBMCs; experiment: Activation and exhaustion markers on T cells of PBMCs grafted or co-grafted with MDAMB436 cells in avian embryo, with or without Keytruda (FIG. 11C); assay type: in vivo; conditions: FACS 48 hours post-grafting
# Description: (11C) PBMC were co-grafted with tumoral cells: Pmela (a PDL1 negative cell line) or MDAMB436 (a PDL1 weak positive cell line).
# Markers of activation (CD69, HLADR on the left) and exhaustion (CTLA4, PD1, on the right) were determined in PBMCs after co-grafting with human tumoral cells (Pmela or MDAM) in an avian embryo. Values are expressed in frequency over CD4+ and CD8+ populations in ratios of total identified lymphocytes (CD3+CD4+ and CD3+CD8+). Standard Deviations show data from a pool of PBMC from different healthy donors. Left Graph: CD4+, right graph: CD8+.
# Then, MDAMB436 cells or Pmela cells were co-grafted with human PBMC cells.
# At two days (48 hours) post-grafting, PBMCs were isolated from grafted embryos and analyzed by FACS.
# Finally, grafted PBMCs were isolated by Percoll density separation and stained cells for markers of activation (CD69/HLADR) and exhaustion (CTLA4/PD1).
# Standard Deviations show data from a pool of PBMC from different healthy donors. Values are expressed in ratios of the specific marker over CD3+CD4+ and CD3+CD8+ populations.
# MDAMB 231 tumoral cells = experiment: Tumor volume in avian embryo co-grafted with MDAMB 231 cells and human PBMCs (FIG. 12B); assay type: in vivo; conditions: MDAMB 231 + human PBMCs co-graft, vs NaCl, raw and BSA-normalized
# Description: (§1) The same experiment of example 9 was performed with other cancer cells: • MDAMB 231, well-known to be responsive to immunotherapy, and • a tumor sample issued from a patient affected by a metastatic melanoma.
# [2] = system: tumor sample from a patient affected by a metastatic melanoma; experiment: Metastasis number and volume in avian embryo co-grafted with human PBMCs and patient metastatic melanoma sample (FIG. 12C); assay type: in vivo; conditions: patient metastatic melanoma sample + human PBMCs co-graft, vs NaCl
# Description: Metastasis number (on the left) and volume of metastatic tumors (in the middle) have been assessed. On the right, pictures show the extension of the tumor after NaCl treatment (on top) and after Keytruda treatment (on the bottom).
# as §1
# Also, the number of metastases formed by patient tumoral cells in the avian embryonic tissues has been assessed by the following of fluorescently-labelled tumor cells, and subsequent quantification of the fluorescent signal in the embryo.
# [3] = system: human melanoma A375 cell line; experiment: Tumor volume in avian embryo co-grafted with A375 melanoma cells and human PBMCs (FIG. 12A); assay type: in vivo; conditions: A375 + human PBMCs co-graft, Keytruda injected 24 hours post-grafting, vs excipient, two to three days post-grafting
# Description: To determine whether tumors composed of mixed human tumoral cells and immune cells are sensitive to anti-PD1 antibody treatment, the human melanoma A375 cell line was selected for the experiments. Indeed, this cell line was recently reported to express significant levels of PDL1 and to respond to anti-PD1 immunotherapy (Kuryk L, Møller A W, Jaderberg M, 2019).
# A375 melanoma cells were cultured and co-grafted with human PBMC cells as previously described.
# Two to three days post-grafting, embryos were collected and processed for imaging with a confocal light sheet microscope. The volume of the tumors was quantified using IMARIS software.
# [4] = system: T lymphocytes of PBMCs co-grafted with MDAMD231 tumoral cells; experiment: Activation and exhaustion markers on immune cells co-grafted with MDAMD231 cells in avian embryo, Keytruda treatment (FIG. 11D); assay type: in vivo, human; conditions: PBMCs co-grafted with MDAMD231, Keytruda 5 mg/ml, 24 hours, vs NaCl
# Excerpt: Expression of activation and exhaustion markers on co-grafted immune cells was quantified.
substance,measurement,setting,value
Pemzolibrumab [Keytruda],levels of CTLA4 on the CD8 compartment,[1]; embryo treated 24 hours with Keytruda (PD1 blocking),very high levels
same,PD1 expression/accessibility on CD8 T cells,[1]; embryo treated 24 hours with Keytruda,minimization
same,tumor volume,MDAMB 231 tumoral cells,significant reduction
same,metastasis number (ability of tumor cells to metastasis),[2],significantly decreased
same,metastatic-volume,[2],significant reduction
same,volume of the tumor,[3],decreases significantly
same,expression of exhaustion marker PD1,[4],decreased
same,expression of exhaustion marker TIM-3,[4],decreased
